Counter-ions that a name gives are not always drawn. Like-named read-outs stand apart in the source and are kept apart here.
How the values were obtained:
[1] = target: T1, recombinant human baculovirus-expressed GST-tagged FASN (Homo sapiens, UniProt P49327); test: FASN enzyme activity assay, fluorescence-based detection of CoA with CPM; assay type: biochemical; conditions: 5 nM FASN, 150 μM NADPH, 10 μM acetyl-CoA, 25 μM malonyl-CoA, 90 minutes incubation
T1 construct: GST
Procedure, shortened: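 CoA product reacted with thiol-reactive CPM (diluted to 50 μM in 70% ethanol), read at 390/530 nm after 30 min. Preceding reaction: 90 min, 5 nM recombinant GST-FASN, 150 μM NADPH, 10 μM acetyl-CoA, 25 μM malonyl-CoA, pH 7.5 HEPES, 0.5% DMSO. IC50s fitted by nonlinear sigmoidal regression.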

[2] = read-out: IC50 data for Compounds of Formulae I-V/V(a): Activity
[3] = read-out: IC50 data for Additional Compounds of Formulae I-V(a): Activity

T1 sequence (P49327 whole entry): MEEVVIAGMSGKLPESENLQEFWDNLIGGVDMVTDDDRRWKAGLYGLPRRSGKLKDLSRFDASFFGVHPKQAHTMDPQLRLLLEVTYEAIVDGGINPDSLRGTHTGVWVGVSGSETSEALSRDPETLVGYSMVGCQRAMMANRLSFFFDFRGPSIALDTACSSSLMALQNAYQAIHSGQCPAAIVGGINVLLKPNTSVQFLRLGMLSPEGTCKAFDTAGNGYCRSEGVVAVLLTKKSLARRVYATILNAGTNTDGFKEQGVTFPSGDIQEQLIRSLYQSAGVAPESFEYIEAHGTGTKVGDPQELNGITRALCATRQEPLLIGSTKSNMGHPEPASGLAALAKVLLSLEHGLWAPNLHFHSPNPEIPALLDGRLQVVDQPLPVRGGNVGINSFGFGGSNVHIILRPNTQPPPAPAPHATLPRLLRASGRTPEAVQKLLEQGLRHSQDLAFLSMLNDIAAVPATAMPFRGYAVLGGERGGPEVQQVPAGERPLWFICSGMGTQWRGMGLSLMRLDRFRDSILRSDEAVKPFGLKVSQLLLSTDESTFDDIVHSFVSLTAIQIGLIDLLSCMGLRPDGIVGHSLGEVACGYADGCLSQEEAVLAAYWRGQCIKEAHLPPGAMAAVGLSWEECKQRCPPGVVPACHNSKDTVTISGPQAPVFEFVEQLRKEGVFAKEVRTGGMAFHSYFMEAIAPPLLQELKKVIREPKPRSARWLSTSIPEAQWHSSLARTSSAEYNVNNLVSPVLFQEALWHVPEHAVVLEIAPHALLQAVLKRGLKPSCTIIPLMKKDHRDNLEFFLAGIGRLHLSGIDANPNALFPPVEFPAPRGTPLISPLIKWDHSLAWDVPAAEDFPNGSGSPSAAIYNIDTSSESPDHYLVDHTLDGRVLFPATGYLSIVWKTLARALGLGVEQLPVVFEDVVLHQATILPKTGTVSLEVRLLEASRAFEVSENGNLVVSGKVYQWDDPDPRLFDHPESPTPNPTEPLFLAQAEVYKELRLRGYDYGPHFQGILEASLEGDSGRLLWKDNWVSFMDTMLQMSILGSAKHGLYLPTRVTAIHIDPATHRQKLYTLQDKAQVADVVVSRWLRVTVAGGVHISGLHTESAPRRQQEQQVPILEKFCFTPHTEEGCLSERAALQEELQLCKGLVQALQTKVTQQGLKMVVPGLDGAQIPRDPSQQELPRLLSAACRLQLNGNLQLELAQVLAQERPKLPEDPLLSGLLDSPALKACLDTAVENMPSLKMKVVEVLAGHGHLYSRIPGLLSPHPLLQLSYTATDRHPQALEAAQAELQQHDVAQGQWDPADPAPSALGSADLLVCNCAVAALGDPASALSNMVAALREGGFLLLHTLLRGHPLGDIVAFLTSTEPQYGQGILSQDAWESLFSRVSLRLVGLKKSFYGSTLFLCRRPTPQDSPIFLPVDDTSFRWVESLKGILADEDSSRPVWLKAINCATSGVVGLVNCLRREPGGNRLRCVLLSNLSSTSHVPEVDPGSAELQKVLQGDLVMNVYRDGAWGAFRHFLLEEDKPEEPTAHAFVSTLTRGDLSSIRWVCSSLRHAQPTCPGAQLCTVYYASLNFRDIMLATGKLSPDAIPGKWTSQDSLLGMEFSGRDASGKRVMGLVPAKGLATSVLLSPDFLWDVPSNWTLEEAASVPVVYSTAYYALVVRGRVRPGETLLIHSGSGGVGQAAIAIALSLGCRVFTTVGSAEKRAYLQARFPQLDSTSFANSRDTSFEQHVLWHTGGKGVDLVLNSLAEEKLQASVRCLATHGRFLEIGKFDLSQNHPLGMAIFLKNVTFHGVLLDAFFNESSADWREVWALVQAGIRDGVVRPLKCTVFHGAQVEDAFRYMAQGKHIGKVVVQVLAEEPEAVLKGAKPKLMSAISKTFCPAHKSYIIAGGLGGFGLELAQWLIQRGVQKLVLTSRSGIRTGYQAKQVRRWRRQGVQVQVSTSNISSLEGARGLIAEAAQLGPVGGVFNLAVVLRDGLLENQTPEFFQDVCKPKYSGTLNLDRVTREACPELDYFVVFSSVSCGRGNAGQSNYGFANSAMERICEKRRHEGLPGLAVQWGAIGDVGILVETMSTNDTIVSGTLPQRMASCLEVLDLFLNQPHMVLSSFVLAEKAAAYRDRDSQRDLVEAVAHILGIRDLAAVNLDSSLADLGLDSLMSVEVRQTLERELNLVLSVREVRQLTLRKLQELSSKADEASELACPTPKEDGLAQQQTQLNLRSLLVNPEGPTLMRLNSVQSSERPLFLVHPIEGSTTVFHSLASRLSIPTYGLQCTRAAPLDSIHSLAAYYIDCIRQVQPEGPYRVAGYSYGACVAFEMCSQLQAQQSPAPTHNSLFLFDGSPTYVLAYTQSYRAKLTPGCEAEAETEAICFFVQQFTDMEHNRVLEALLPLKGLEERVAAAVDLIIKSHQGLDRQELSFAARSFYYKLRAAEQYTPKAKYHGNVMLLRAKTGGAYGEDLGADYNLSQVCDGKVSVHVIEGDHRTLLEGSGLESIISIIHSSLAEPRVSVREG

SMILES	melting point	IC50 [1, 2]	IC50 [1, 3]
CCC(=O)N1CCC(Oc2ccc(-c3ccc4cccnc4c3)nc2)CC1 (as salt: HCl) [Example 144, 1-[4-(6-Quinolin-7-yl-pyridin-3-yloxy)-piperidin-1-yl]-propan-1-one, 2HCl]	90 to 96 °C		
CC(C)C(=O)N1CCC(Oc2ccc(-c3ccc4cccnc4c3)nc2)CC1 (as salt: HCl) [Example 145, 2-Methyl-1-[4-(6-quinolin-7-yl-pyridin-3-yloxy)-piperidin-1-yl]-propan-1-one, 2HCl]	170 to 179 °C		
O=C(C1CC1)N1CCC(Oc2ccc(-c3ccc4cccnc4c3)nc2)CC1 (as salt: HCl) [Example 146, Cyclopropyl-[4-(6-quinolin-7-yl-pyridin-3-yloxy)-piperidin-1-yl]-methanone, 2HCl]	170 to 175 °C		
CCC(=O)N1CCC(Oc2ccc(-c3ccc4cnccc4c3)nc2)CC1 (as salt: HCl) [Example 147, 1-[4-(6-Isoquinolin-6-yl-pyridin-3-yloxy)-piperidin-1-yl]-propan-1-one, 2HCl]	236 to 245 °C		
CC(C)C(=O)N1CCC(Oc2ccc(-c3ccc4cnccc4c3)nc2)CC1 (as salt: HCl) [Example 148, 1-[4-(6-Isoquinolin-6-yl-pyridin-3-yloxy)-piperidin-1-yl]-2-methyl-propan-1-one, 2HCl]	236 to 241 °C		
O=C(C1CC1)N1CCC(Oc2ccc(-c3ccc4cnccc4c3)nc2)CC1 (as salt: HCl) [Example 149, Cyclopropyl-[4-(6-isoquinolin-6-yl-pyridin-3-yloxy)-piperidin-1-yl]-methanone, 2HCl]	136 to 146 °C		
CCC(=O)N1CC[C@H](Oc2ccc(-c3cnc4ccccc4c3)cc2)C1 (as salt: HCl) [Example 343, (S)-1-(3-(4-(Quinolin-3-yl)phenoxy)pyrrolidin-1-yl)propan-1-one, HCl]	60 °C		
CCC(=O)N1CC[C@@H](Oc2ccc(-c3ccc4cccnc4c3)cc2)C1 (as salt: HCl) [Example 344, (R)-1-(3-(4-(Quinolin-7-yl)phenoxy)pyrrolidin-1-yl)propan-1-one, HCl]	53 °C		
CCC(=O)N1CC[C@@H](Oc2ccc(-c3cnc4ccccc4c3)cc2)C1 (as salt: HCl) [Example 345, (R)-1-(3-(4-(quinolin-3-yl)phenoxy)pyrrolidin-1-yl)propan-1-one, HCl]	51 °C		
CCC(=O)N1CCC(Sc2ccc(-c3ccc4cccnc4c3)cc2)CC1 (as salt: HCl) [Example 516, 1-(4-((4-(quinolin-7-yl)phenyl)thio)piperidin-1-yl)propan-1-one, HCl]	188 °C		
CCC(=O)N1CCC(Sc2ccc(-c3ccc4cnccc4c3)cc2)CC1 (as salt: HCl) [Example 517, 1-(4-((4-(Isoquinolin-6-yl)phenyl)thio)piperidin-1-yl)propan-1-one, HCl]	222 °C		
CCC(=O)N1CCC(Sc2ccc(-c3cnc4ccccc4c3)cc2)CC1 (as salt: HCl) [Example 518, 1-(4-((4-(Quinolin-3-yl)phenyl)thio)piperidin-1-yl)propan-1-one, HCl]	70 °C		
CCC(=O)N1CCC(Sc2ccc(-c3cncc4ccccc34)cc2)CC1 (as salt: HCl) [Example 519, 1-(4-((4-(Isoquinolin-4-yl)phenyl)thio)piperidin-1-yl)propan-1-one, HCl]	88 °C		
CCC(=O)N1CCC(Oc2ncc(-c3cnc4ccccc4c3)cn2)CC1 [Example 143, 1-[4-(5-Quinolin-3-yl-pyrimidin-2-yloxy)-piperidin-1-yl]-propan-1-one]	162 to 166 °C	1000 to 10000 nM	
CCC(=O)N1CCC(Oc2ccc(-c3cnc4ccccc4c3)cc2Cl)CC1 [Example 191, 1-[4-(2-Chloro-4-quinolin-3-yl-phenoxy)-piperidin-1-yl]-propan-1-one]	183 to 185 °C	1000 to 10000 nM	
CCC(=O)N1CC(Oc2ccc(-c3cnc4ccccc4c3)cc2)C1 [Example 338, 1-(3-(4-(Quinolin-3-yl)phenoxy)azetidin-1-yl)propan-1-one]	172 °C	100 to 999 nM	
CC(C)C(=O)N1CC(Oc2ccc(-c3cnc4ccccc4c3)cc2)C1 [Example 339, 2-Methyl-1-(3-(4-(quinolin-3-yl)phenoxy)azetidin-1-yl)propan-1-one]	162 °C	1000 to 10000 nM	
O=C(C1CC1)N1CC(Oc2ccc(-c3cnc4ccccc4c3)cc2)C1 [Example 340, Cyclopropyl(3-(4-(quinolin-3-yl)phenoxy)azetidin-1-yl)methanone]	187 °C	1000 to 10000 nM	
CC(C)CC(=O)N1CC(Oc2ccc(-c3cnc4ccccc4c3)cc2)C1 [Example 341, 3-Methyl-1-(3-(4-(quinolin-3-yl)phenoxy)azetidin-1-yl)butan-1-one]	201 °C	1000 to 10000 nM	
CC(C)CONC(=O)N1CCC(Oc2ccc(-c3ccc4nccn4c3Cl)cc2)CC1 [Example 571, 4-[4-(5-Chloroimidazo[1,2-a]pyridin-6-yl)phenoxy]-N-isobutoxy-piperidine-1-carboxamide]	157 °C		1000 to 10000 nM

The remaining lines, values ahead:

melting point	IC50 [1, 2]	IC50 [1, 3]	SMILES
120 °C			CC(C)C(=O)N1CCC(Sc2ccc(-c3ccc4cccnc4c3)cc2)CC1 (as salt: HCl) [Example 520]
228 °C			CC(C)C(=O)N1CCC(Sc2ccc(-c3ccc4cnccc4c3)cc2)CC1 (as salt: HCl) [Example 521, 1-(4-((4-(Isoquinolin-6-yl)phenyl)thio)piperidin-1-yl)-2-methylpropan-1-one HCl]
130 °C			CC(C)C(=O)N1CCC(Sc2ccc(-c3cnc4ccccc4c3)cc2)CC1 (as salt: HCl) [Example 522, 2-Methyl-1-(4-((4-(quinolin-3-yl)phenyl)thio)piperidin-1-yl)propan-1-one, HCl]
120 °C			CC(C)C(=O)N1CCC(Sc2ccc(-c3cncc4ccccc34)cc2)CC1 (as salt: HCl) [Example 523, 1-(4-((4-(Isoquinolin-4-yl)phenyl)thio)piperidin-1-yl)-2-methylpropan-1-one HCl]
171 to 177 °C		1 to 99 nM	CCCCNC(=O)N1CCC(Oc2ccc(-c3ccc4nccn4c3Cl)cc2)CC1 [Example 563, N-Butyl-4-[4-(5-chloroimidazo[1,2-a]pyridin-6-yl)phenoxy]piperidine-1-carboxamide]
189 to 193 °C		1000 to 10000 nM	CCNC(=O)N1CCC(Oc2ccc(-c3ccc4nccn4c3Cl)cc2)CC1 [Example 564, 4-[4-(5-Chloroimidazo[1,2-a]pyridin-6-yl)phenoxy]-N-ethyl-piperidine-1-carboxamide]
201 °C		100 to 999 nM	CC(C)CNC(=O)N1CCC(Oc2ccc(-c3ccc4nccn4c3Cl)cc2)CC1 [Example 565, 4-[4-(5-Chloroimidazo[1,2-a]pyridin-6-yl)phenoxy]-N-isobutyl-piperidine-1-carboxamide]
184 °C		1 to 99 nM	CCCNC(=O)N1CCC(Oc2ccc(-c3ccc4nccn4c3Cl)cc2)CC1 [Example 566, 4-[4-(5-Chloroimidazo[1,2-a]pyridin-6-yl)phenoxy]-N-propyl-piperidine-1-carboxamide]
135 to 138 °C		100 to 999 nM	COCCNC(=O)N1CCC(Oc2ccc(-c3ccc4nccn4c3Cl)cc2)CC1 [Example 567, 4-[4-(5-Chloroimidazo[1,2-a]pyridin-6-yl)phenoxy]-N-(2-methoxyethyl)-piperidine-1-carboxamide]
183 to 185 °C		1000 to 10000 nM	O=C(NCC1CC1)N1CCC(Oc2ccc(-c3ccc4nccn4c3Cl)cc2)CC1 [Example 568, 4-[4-(5-Chloroimidazo[1,2-a]pyridin-6-yl)phenoxy]-N-(cyclopropylmethyl)-piperidine-1-carboxamide]
175 °C		100 to 999 nM	CC(C)ONC(=O)N1CCC(Oc2ccc(-c3ccc4nccn4c3Cl)cc2)CC1 [Example 569, 4-[4-(5-Chloroimidazo[1,2-a]pyridin-6-yl)phenoxy]-N-isopropoxy-piperidine-1-carboxamide]
220 °C		1 to 99 nM	CC(C)NC(=O)N1CCC(Oc2ccc(-c3ccc4nccn4c3Cl)cc2)CC1 [Example 570, 4-[4-(5-Chloroimidazo[1,2-a]pyridin-6-yl)phenoxy]-N-isopropyl-piperidine-1-carboxamide]
185 °C		1000 to 10000 nM	CC(C)CCNC(=O)N1CCC(Oc2ccc(-c3ccc4nccn4c3Cl)cc2)CC1 [Example 572, 4-[4-(5-Chloroimidazo[1,2-a]pyridin-6-yl)phenoxy]-N-isopentyl-piperidine-1-carboxamide]
75 °C		1 to 99 nM	CCCONC(=O)N1CCC(Oc2ccc(-c3ccc4cccnc4c3C)cc2)CC1 [Example 574, 4-[4-(8-Methyl-7-quinolyl)phenoxy]-N-propoxy-piperidine-1-carboxamide]
232 °C		1 to 99 nM	O=C(NO)N1CCC(Oc2ccc(-c3ccc4nccn4c3Cl)cc2)CC1 [Example 575, 4-[4-(5-Chloroimidazo[1,2-a]pyridin-6-yl)phenoxy]piperidine-1-carbohydroxamic acid]
204 °C		100 to 999 nM	NC(=O)N1CCC(Oc2ccc(-c3ccc4nccn4c3Cl)cc2)CC1 [Example 577, 4-[4-(5-Chloroimidazo[1,2-a]pyridin-6-yl)phenoxy]piperidine-1-carboxamide]

— patent US9902696B2, “1,4-substituted piperidine derivatives” (Cephalon, Inc., priority 2015, dated 2018)
